Reference: ChEMBL document CHEMBL1201862, “PubChem BioAssay data set” (2004)
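Where inhibition never reached the appropriate level, the endpoint shown equals the highest concentration tested. Otherwise, values were interpolated linearly from a five-concentration, 48-hour dose response in 96-well plates. GI50 marks 50% less growth.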 The source made the active and inactive calls. No stated cut-off is given here; in the data, active = GI50 up to about 1.1 µM and inactive = higher.

How the values were obtained:
Experiment in all cases: NCI tumour cell line growth inhibition, 48 h
EKVX = system: EKVX
IGROV-1 = system: IGROV-1
NCI-H522 = system: NCI-H522
SK-OV-3 = system: SK-OV-3
MDA-MB-435 = system: MDA-MB-435
786-0 = system: 786-0
U-251 = system: U-251
PC-3 = system: PC-3
HCC 2998 = system: HCC 2998
LOX IMVI = system: LOX IMVI
A549 = system: A549
T47D = system: T47D
CCRF-CEM = system: CCRF-CEM
K562 = system: K562
SF-539 = system: SF-539
KM12 = system: KM12
SF-268 = system: SF-268
SNB-19 = system: SNB-19
SK-MEL-5 = system: SK-MEL-5
M14 = system: M14
OVCAR-3 = system: OVCAR-3
SR = system: SR
UACC-257 = system: UACC-257
CAKI-1 = system: CAKI-1
MCF7 = system: MCF7
UACC-62 = system: UACC-62
SN12C = system: SN12C
HCT-15 = system: HCT-15
SK-MEL-2 = system: SK-MEL-2
OVCAR-4 = system: OVCAR-4
Malme-3M = system: Malme-3M
A498 = system: A498
SNB-75 = system: SNB-75
NCI-H226 = system: NCI-H226
RXF 393 = system: RXF 393
OVCAR-5 = system: OVCAR-5
HL-60 = system: HL-60
COLO 205 = system: COLO 205
MDA-N = system: MDA-N
MOLT-4 = system: MOLT-4
UO-31 = system: UO-31
NCI-H23 = system: NCI-H23
HOP-62 = system: HOP-62
RPMI-8226 = system: RPMI-8226
ACHN = system: ACHN
DU-145 = system: DU-145
SW-620 = system: SW-620
OVCAR-8 = system: OVCAR-8
HCT-116 = system: HCT-116
MDA-MB-231 = system: MDA-MB-231
NCI/ADR-RES = system: NCI/ADR-RES
SF-295 = system: SF-295
BT-549 = system: BT-549
NCI-H460 = system: NCI-H460
HOP-92 = system: HOP-92
HT-29 = system: HT-29
SK-MEL-28 = system: SK-MEL-28
TK-10 = system: TK-10
Hs-578T = system: Hs-578T

`Cc1cccc(CP(Cc2cccc(C)c2)CC2(Cp3c4ccccc4c4ccccc43)COC2)c1` was tested, and the GI50 (EKVX) was 14.1 µM (inactive), the GI50 (IGROV-1) was 2.3 µM (inactive) and the GI50 (NCI-H522) was 1.18 µM (inactive). For the same compound, the GI50 (SK-OV-3) was > 100 µM (inactive), the GI50 (MDA-MB-435) was 5.71 µM (inactive) and the GI50 (786-0) was 1.53 µM (inactive). For the same compound, the GI50 (U-251) was 0.47 µM (active), the GI50 (PC-3) was 0.935 µM (active) and the GI50 (HCC 2998) was 12.3 µM (inactive). The GI50 (LOX IMVI) was 1.42 µM (inactive), the GI50 (A549) was 0.206 µM (active) and the GI50 (T47D) was 1.73 µM (inactive). The GI50 (CCRF-CEM) was 0.406 µM (active), the GI50 (K562) was 1.33 µM (inactive) and the GI50 (SF-539) was 12.1 µM (inactive). The GI50 (KM12) was 2.51 µM (inactive), the GI50 (SF-268) was 3.79 µM (inactive) and the GI50 (SNB-19) was 5.96 µM (inactive). For the same compound, the GI50 (SK-MEL-5) was 2.55 µM (inactive), the GI50 (M14) was 3.97 µM (inactive) and the GI50 (OVCAR-3) was 8.43 µM (inactive). For the same compound, the GI50 (SR) was 1.15 µM (inactive), the GI50 (UACC-257) was 8.97 µM (inactive) and the GI50 (CAKI-1) was 9.75 µM (inactive). The GI50 (MCF7) was 3.15 µM (inactive), the GI50 (UACC-62) was 11.7 µM (inactive) and the GI50 (SN12C) was 4.41 µM (inactive). For the same compound, the GI50 (HCT-15) was 31 µM, the GI50 (SK-MEL-2) was 7.23 µM (inactive) and the GI50 (OVCAR-4) was 13.3 µM (inactive). For the same compound, the GI50 (Malme-3M) was 5.13 µM (inactive), the GI50 (A498) was 7.41 µM (inactive) and the GI50 (SNB-75) was 0.501 µM (active). The GI50 (NCI-H226) was 4.11 µM (inactive), the GI50 (RXF 393) was > 20.3 µM (inactive) and the GI50 (OVCAR-5) was > 100 µM (inactive). For the same compound, the GI50 (HL-60) was 0.332 µM (active), the GI50 (COLO 205) was 0.249 µM (active) and the GI50 (MDA-N) was 6.32 µM (inactive). The GI50 (MOLT-4) was 0.662 µM (active), the GI50 (UO-31) was 16.3 µM (inactive) and the GI50 (NCI-H23) was 11.5 µM (inactive). The GI50 (HOP-62) was 66.7 µM (inactive), the GI50 (RPMI-8226) was 1.02 µM (active) and the GI50 (ACHN) was 4.71 µM (inactive). For the same compound, the GI50 (DU-145) was 4.71 µM (inactive), the GI50 (SW-620) was 10.3 µM (inactive) and the GI50 (OVCAR-8) was 1.78 µM (inactive). The GI50 (HCT-116) was 0.252 µM (active), the GI50 (MDA-MB-231) was 1.3 µM (inactive) and the GI50 (NCI/ADR-RES) was 53.7 µM (inactive). For the same compound, the GI50 (SF-295) was 2.18 µM (inactive), the GI50 (BT-549) was 3.96 µM (inactive) and the GI50 (NCI-H460) was 1.63 µM (inactive). For the same compound, the GI50 (HOP-92) was 1.99 µM (inactive), the GI50 (HT-29) was 0.485 µM (active) and the GI50 (SK-MEL-28) was 13 µM (inactive).
For `CC(=O)c1c(O)ccc2c1c1c(n2C)C(=O)c2ccccc2C1=O`, the GI50 (EKVX) was 3.24 µM (inactive), the GI50 (IGROV-1) was 1.82 µM (inactive) and the GI50 (SK-OV-3) was 2.84 µM (inactive). For the same compound, the GI50 (786-0) was 4.9 µM (inactive), the GI50 (U-251) was 4.63 µM (inactive) and the GI50 (HCC 2998) was 0.0114 µM (active). The GI50 (LOX IMVI) was 3.24 µM (inactive), the GI50 (A549) was 5.66 µM (inactive) and the GI50 (T47D) was 1.45 µM (inactive). The GI50 (CCRF-CEM) was 3.69 µM (inactive), the GI50 (K562) was > 100 µM (inactive) and the GI50 (SF-539) was 3.08 µM (inactive). For the same compound, the GI50 (SF-268) was 1.86 µM (inactive), the GI50 (SNB-19) was 7.28 µM (inactive) and the GI50 (SK-MEL-5) was 3.29 µM (inactive). The GI50 (OVCAR-3) was 1.81 µM (inactive), the GI50 (SR) was 2.25 µM (inactive) and the GI50 (UACC-257) was > 100 µM (inactive). The GI50 (CAKI-1) was 5.24 µM (inactive), the GI50 (MCF7) was 1.69 µM (inactive) and the GI50 (HCT-15) was > 100 µM. For the same compound, the GI50 (SK-MEL-2) was > 100 µM (inactive), the GI50 (Malme-3M) was 0.0128 µM (active) and the GI50 (A498) was 2.84 µM (inactive). For the same compound, the GI50 (SNB-75) was 2.32 µM (inactive), the GI50 (RXF 393) was 3.84 µM (inactive) and the GI50 (OVCAR-5) was > 100 µM (inactive). For the same compound, the GI50 (HL-60) was > 100 µM (inactive), the GI50 (COLO 205) was > 100 µM (inactive) and the GI50 (MOLT-4) was 4.42 µM (inactive). The GI50 (HOP-62) was 6.53 µM (inactive), the GI50 (RPMI-8226) was 1.46 µM (inactive) and the GI50 (DU-145) was 3.21 µM (inactive). For the same compound, the GI50 (OVCAR-8) was 5.3 µM (inactive), the GI50 (TK-10) was 3.47 µM (inactive) and the GI50 (HCT-116) was 3.01 µM (inactive). The GI50 (MDA-MB-231) was 2.52 µM (inactive), the GI50 (SF-295) was 6.92 µM (inactive) and the GI50 (BT-549) was > 100 µM (inactive). For the same compound, the GI50 (NCI-H460) was 3.21 µM (inactive), the GI50 (HT-29) was > 100 µM (inactive) and the GI50 (SK-MEL-28) was 2.99 µM (inactive). The GI50 (Hs-578T) was 2.82 µM (inactive).
For `COc1ccc(C2C3=CONC3CC3CCCCC32)cc1` (centres undefined), the GI50 (IGROV-1) was > 100 µM (inactive), the GI50 (NCI-H522) was 29.6 µM (inactive) and the GI50 (MDA-MB-435) was 47.9 µM (inactive). For the same compound, the GI50 (786-0) was 46.7 µM (inactive), the GI50 (U-251) was 46 µM (inactive) and the GI50 (PC-3) was 30.6 µM (inactive). The GI50 (HCC 2998) was 18.5 µM (inactive), the GI50 (LOX IMVI) was 69.7 µM (inactive) and the GI50 (A549) was 33.8 µM (inactive). For the same compound, the GI50 (T47D) was 35.6 µM (inactive), the GI50 (CCRF-CEM) was 42.1 µM (inactive) and the GI50 (K562) was 39.4 µM (inactive). For the same compound, the GI50 (SF-268) was 79.4 µM (inactive), the GI50 (SNB-19) was 92.7 µM (inactive) and the GI50 (SK-MEL-5) was 50.8 µM (inactive). The GI50 (M14) was 54.5 µM (inactive), the GI50 (OVCAR-3) was 39.8 µM (inactive) and the GI50 (SR) was 41.9 µM (inactive). The GI50 (UACC-257) was 80.2 µM (inactive), the GI50 (CAKI-1) was > 100 µM (inactive) and the GI50 (MCF7) was 12.8 µM (inactive). For the same compound, the GI50 (UACC-62) was 70.1 µM (inactive), the GI50 (SK-MEL-2) was 33.8 µM (inactive) and the GI50 (OVCAR-4) was 50.4 µM (inactive). The GI50 (Malme-3M) was 43.3 µM (inactive), the GI50 (SNB-75) was > 100 µM (inactive) and the GI50 (NCI-H226) was > 100 µM (inactive). For the same compound, the GI50 (OVCAR-5) was > 100 µM (inactive), the GI50 (HL-60) was 29.6 µM (inactive) and the GI50 (MDA-N) was > 10 µM (inactive). For the same compound, the GI50 (MOLT-4) was 18.9 µM (inactive), the GI50 (UO-31) was 38 µM (inactive) and the GI50 (NCI-H23) was 35.2 µM (inactive). The GI50 (HOP-62) was > 100 µM (inactive), the GI50 (RPMI-8226) was 28.8 µM (inactive) and the GI50 (ACHN) was 51.5 µM (inactive). The GI50 (SW-620) was > 100 µM (inactive), the GI50 (OVCAR-8) was 85.7 µM (inactive) and the GI50 (TK-10) was > 100 µM (inactive). For the same compound, the GI50 (HCT-116) was 29.8 µM (inactive), the GI50 (BT-549) was > 100 µM (inactive) and the GI50 (NCI-H460) was 33.8 µM (inactive). For the same compound, the GI50 (HT-29) was > 100 µM (inactive) and the GI50 (SK-MEL-28) was 68.4 µM (inactive).
